Data as given in patent US20070074297A1, “TAAR1 knock out animal” (priority 2005, published 2007).
“And” between values parts separate entries of the source, which are not always exact repeats. Equal values may be shown once. “Also recorded” adds a separate entry of the source.

What was measured:
[1] = system: dopaminergic neurons in the VTA; experiment: Slice electrophysiology, spontaneous firing rate in the ventral tegmental area (current clamp); format: cell-based, mouse; conditions: for spike frequency F of dopaminergic neurons: bath application 10 μM
Description: Horozontal slices (250 μm thick, VT1000 vibratome, Leica) of the midbrain were prepared from TAAR1 knock-out and littermate wild-type mice 25-60 days of age. Slices were cooled in artificial cerebrospinal fluid (ACSF) containing in mM: 119 NaCl, 2.5 KCl, 1.3 MgCl2, 2.5 CaCl2, 1.0 NaH2PO4, 26.2 NaHCO3 and 11 glucose. Slices were continuously bubbled with 95% O2 and 5% CO2 and transferred after 1 h to the recording chamber superfused (1.5 ml/min) with ACSF at 32-34° C. The VTA was identified as the region medial to the medial terminal nucleus of the accessory optical tract. Visualized whole-cell current-clamp recording techniques were used to measure the spontaneous firing rate and holding currents of neurons. […] Dopaminergic neurons were identified by a large Ih current. The internal solution contained in mM: 140 potassium gluconate, 4 NaCl, 2 MgCl2, 1.1 EGTA, 5 HEPES, 2 Na2ATP, 5 sodium creatine phosphate and 0.6 Na2GTP; the pH was adjusted to 7.3 with KOH. Data were obtained with an Axopatch 200B (Axon Instruments, Union City, Calif., USA), filtered at 2 kHz and digitized at 10 kHz, acquired and analyzed with pClamp9 (Axon Instruments, Union City, Calif., USA). Values are expressed as mean±sem. For statistical comparisons we used the Kolmogorov-Smirnov test. The level of significance was set at P=0.05.

[2] = system: TAAR1^+/+ and TAAR1^LacZ/LacZ mice; experiment: In vivo microdialysis of extracellular biogenic amines in the striatum after d-amphetamine; set-up: species or system mouse
Description: Four months old male mice were used for these experiments. The procedures used for the experiments described in this report received prior approval from the City of Basel Cantonal Animal Protection Committee based on adherence to federal and local regulations on animal maintenance and testing.
Forty-five minutes before anesthesia mice received subcutaneously 0.075 mg/kg of buprenorfine. Mice were then anesthetized with isoflurane and placed in a stereotaxic device equipped with dual manipulators arms and an anesthetic mask. Anesthesia was maintained with isoflurane 0.8-1.2% (v/v; support gas oxygen/air, 2:1). The head was shaved and the skin was cut along the midline to expose the skull. A small bore hole was made in the skull to allow the stereotaxical insertion of the microdialysis probe (vertical probe carrying a 2 mm polyacrilonitrile dialysis membrane; Brains On-line, Groningen, The Netherlands) in the striatum (coordinates: A 0.9 mm, L-1.8 mm, V-4.6 mm). The probe was cemented into place using binary dental cement. Once the cement was firm, the wound was closed with silk thread for suture (Silkam) the animal was removed from the stereotaxic instrument and returned to its cage. At the end of the surgery and 24 hrs later mice were treated with Meloxicam 1 mg/kg sc. The body weight of the animals was measured before the surgery and in the following days to monitor the recovery of the animal from surgery.
All microdialysis experiments were carried out 3-4 days after surgery in awake, freely moving mice. The day of the experiment, the inlet of the implanted dialysis probe was connected to a micro-perfusion pump (CMA/Microdialysis, Sweden) and the outlet was connected to a fraction collector. The microdialysis probe was then perfused with Ringer solution (NaCl 147 mM, KCl 3 mM, CaCl2 1.2 mM, MgC12 1.2 mM) at a constant flow rate of 1.5 μL/min and […] Four samples of dialysates were collected before pharmacological treatment to determine the baseline levels of biogenic amines and their metabolites. Mice were then treated intraperitoneally with 2.5 mg/kg of amphetamine and dialysate samples collected for further 2.5 hrs. Dialysate samples were stored frozen at −80° C. until analysis.
Frozen dialysate samples were shipped in dry ice to Brains On-Line for assay of monoamines and their metabolites. The concentrations of dopamine, DOPAC, serotonin, 5-HIAA and noradrenaline were measured by use an HPLC equipped with an electrochemical detector according to the procedure of van der Vegt et al. (2003).
Concentrations of norepinephrine, dopamine, and serotonin were determined within the same samples by HPLC separation and electrochemical detection. Samples were split into two aliquots; one used for simultaneous analysis of norepinephrine and dopamine, the other for analysis of serotonin.
Aliquots (20 μL) were injected onto the HPLC column by a refrigerated microsampler system, consisting of a syringe pump (Gilson, model 402), a multi-column injector (Gilson, model 233 XL), and a temperature regulator (Gilson, model 832). Chromatographic separation was performed on a reverse-phase 150×2.1 mm (3 μm) C18 Thermo BDS Hypersil column (Keystone Scientific). The mobile phase (isocratic) consisted of a sodium acetate buffer (4.1 g/L Na acetate) with 2.5% v/v methanol, 150 mg/L Titriplex (EDTA), 150 mg/L 1-octanesulfonic acid, and 150 mg/L tetramethylammonium chloride (pH=4.1 adjusted with glacial acetic acid). Mobile phase was run through the system at a flow rate of 0.35 mL/min by an HPLC pump (Shimadzu, model LC-10AD vp).
Norepinephrine and dopamine were detected electrochemically using a potentiostate (Antec Leyden, model Intro) fitted with a glassy carbon electrode set at +500 mV vs. Ag/AgCl (Antec Leyden). Data were analyzed by Chromatography Data System (Shimadzu, class-vp) software. Concentrations of monoamines were quantitated by external standard method. […]

[3] = system: TAAR1^+/+ and TAAR1^LacZ/LacZ mice; experiment: Locomotor activity after d-amphetamine challenge (Digiscan activity monitor); format: in vivo, mouse; conditions: 2.5 mg/kg i.p.
Description: Locomotor activity. A computerized Digiscan 16 Animal Activity Monitoring System (Omnitech Electronics, Colombus, Ohio) was used to quantitate spontaneous locomotor activity. Data were obtained simultaneously from eight Digiscan activity chambers placed in a soundproof room with a 12 hr light/dark cycle. All tests were performed during the light phase (6 a.m. to 6 p.m.). Each activity monitor consisted of a Plexiglas box (20×20×30.5 cm) with sawdust bedding on the floor surrounded by invisible horizontal and vertical infrared sensor beams. The cages were connected to a Digiscan Analyzer linked to a PC that constantly collected the beam status information. With this system, different behavioral parameters could be measured, such as horizontal and vertical activity, total distance travelled (in cm), and stereotypies. The mice were tested via a pseudo-Latin squares design […] with at least a 10-day interval between two consecutive test sessions. […] Locomotor activity was recorded for 90 min starting immediately after the mice were placed in the cages.
Statistics. Behavioral observations were recorded as mean values SE and analyzed with an unpaired t test. Locomotor activity data (total distance) were analyzed with a two-factor (Genotype and Dose) ANOVA with repeated measures. […]

[4] = TAAR1^LacZ/LacZ mice, 2.5 mg/kg i.p.

Structure (SMILES)	spike frequency F of dopaminergic neurons ([1]; TAAR1^+/+ mice, n=19, control 2.1±0.3 Hz, p<0.0001)	spike frequency F of dopaminergic neurons ([1]; TAAR1^LacZ/LacZ mice, n=15, control 16.73±1.15 Hz, p>0.05)	effect on firing rate (spike frequency) of dopaminergic neurons, in words ([1]; wild type (TAAR1^+/+) mice)	amphetamine-triggered increase in extracellular dopamine, TAAR1^LacZ/LacZ relative to TAAR1^+/+ ([2]; 2.5 mg/kg i.p., n=7-8)	amphetamine-triggered increase in noradrenaline (norepinephrine), TAAR1^LacZ/LacZ relative to wild type ([2]; 2.5 mg/kg i.p., n=7-8, 2.5 mg/kg)	time until DOPAC levels returned to basal levels ([2]; TAAR1^LacZ/LacZ mice)	increase of extracellular dopamine level over basal [2, 4]	increase of extracellular norepinephrine level over basal [2, 4]	increase of extracellular serotonin level [2, 4]	DOPAC level versus wild-type control ([2]; TAAR1^LacZ/LacZ mice, 45 min after administration)	change of extracellular DOPAC level in response to amphetamine ([2]; both TAAR1^LacZ/LacZ and TAAR1^+/+ mice, 2.5 mg/kg i.p.)	change in levels of the 5-HT metabolite 5-HIAA ([2]; both genotypes, 2.5 mg/kg i.p.)	change of extracellular serotonin level ([2]; wild type (TAAR1^+/+) mice, 2.5 mg/kg i.p., 2.5 mg/kg)	locomotor activity (total distance moved) after d-amphetamine, compared to wild type littermates ([3]; TAAR1^LacZ/LacZ mice, n=12, 2.5 mg/kg)	locomotor activity (total distance moved) after d-amphetamine injection ([3]; wild type (TAAR1^+/+) mice)
NCCc1ccc(O)cc1 [p-tyramine]	0.63±0.04 Hz	16.57±1.35 Hz	significant decrease; also recorded: decreases the firing rate												
C[C@H](N)Cc1ccccc1 [d-amphetamine]				2.3 fold	2.3 fold and 2.4 fold	135 min	11 fold	4.9 fold	2.5 fold	significantly decreased	only a marginal decrease	No significant changes	remained unchanged; also recorded: not in their TAAR1^+/+ littermates	moved significantly more than wild type littermates; also recorded: significantly higher	decreased
